Measurements from US10322140B2, “Preparation and use of 7a-heterocycle substituted-6,6-difluoro bicyclic himbacine derivatives as PAR-1 receptor antagonists” (Merck Sharp & Dohme Corp., priority 2013, dated 2019).

What was measured:
PAR-1 receptor = PAR-1 receptor (Homo sapiens (Human), UniProt P25116); experiment: PAR-1 FLIPR Assay; format: cell-based; settings: HEK 293 cells, calcium signal after PAR-1 selective receptor-activating peptide at EC80
Method: This assay measures the potency of the inventive compounds as PAR-1 receptor antagonists.
Frozen HEK 293 Cells were plated in 384-well PDL coated plates at 12000 cells/well in 50 uL of DMEM media containing 10% FBS, pen/strep/L-Glutamine and non-essential amino acids, incubated overnight at 37° C./5% CO2. Media was then removed from the cells, incubated with 33 uL of Calcium-5 dye in assay buffer (Hank's buffer containing 20 mM HEPES, 0.04% Chaps and 2.5 mM Probenecid) for 60 minutes at 37° C. 2 uL of varying concentrations of compound in 40% DMSO in assay buffer (final DMSO concentration is […]) were then added to the cells and incubated at 25° C. for 30 minutes. The plates were added to the FLIPR Tetra®, the device added 5 μL of PAR-1 selective receptor-activating peptide (sequence Ala-parafluoroPhe-Arg-Cha-Cit-Try-NH2, prepared in water) at a concentration equal to the effective concentration that achieved 80% activation of signaling on the day of the experiment. The range of peptide was from 1.5-3 μM. The final volume is 40 uL/well, with 2% DMSO. The FLIPR was read at an excitation wavelength of 480 nm and an emission wavelength of 535 nm, and performed 60 scans over a 1-2 min reading time. The data were analyzed by taking the peak signal over a portion of the range of the 60 scans and dividing this signal by the minimum signal for that same range. The data were expressed as percent inhibition of the maximum divided by the minimum signal achieved at 80% activation produced by the PAR1 activating peptide on the test day. The compounds of Examples 1-13 were tested in the assay described above and the data collected for these compounds is provided.

CYP3A4 = CYP3A4 (Homo sapiens (Human), UniProt P08684); experiment: CYP MUX (3A4) RI; format: in vitro ADME; settings: human liver microsomes, substrate testosterone, 37° C. 10 min
Description: This assay measures inhibition of CYP3A4 by a compound. Cytochromes P450 (CYPs) constitute a superfamily of heme-containing enzymes that recognize and metabolize a large number structurally diverse xenobiotics in the human body. CYP3A4 constitutes the largest portion of CYP enzymes in the liver that accounts for the metabolism of almost 50% of all drugs. This assay is used to evaluate the potential of a compound for developing DDIs. (Clarke, S. E.; Jones B. C. Drug-Drug Interactions, New York: Marcel Dekker; 2002. pp. 53-88).
Compound dilutions and assay-ready plates were prepared on a TTP Labtech mosquito® HTS. Assay conduction was fully automated on a customized Screening Platform from Caliper (now PerkinElmer) containing a Mitsubishi robotic plate handler, Liconic incubators, a Caliper Zephyr® liquid handling workstation equipped with temperature-controlled deck positions, a Biotek MultiFlo™ dispenser and an Agilent PlateLoc heat sealer. Assay plates were Corning Costar® 384 well PP plates. High throughput mass spectrometric readout was performed on a RapidFire® 300 system coupled to an AB Sciex API 4000™ triple quadrupole device. CYP isoform 3A4 was incubated in a separate reaction of 50 μL final volume. 25 μL of HLM (human liver microsomes, BD UltraPool™ 150, 0.25 mg/mL final concentration) and the respective substrate, testosterone (75 μM) for 3A4, in potassium phosphate buffer (100 mM, pH=7.4) were added to 250 nL of stamped compound solution (10 mM in DMSO). The reactions were started upon addition of 25 μL of a co-factor solution containing magnesium chloride (3.3 mM), glucose-6-phosphate (3.3 mM), glucose-6-phosphate dehydrogenase (1.4 units) and NADP (1 mM) in potassium phosphate buffer (100 mM, pH=7.4) and incubated on deck at 37° C. for 10 min. 8 μL of each reaction were transferred to the same readout plated filled with 48 μL of stop solution containing internal standards (concentration in final readout plate), 6-hydroxytestosterone-D7 (0.5 μM), 4′-hydroxydiclofenac-D4 (0.2 and dextrorphan-D3 (0.01 in acetonitrile with 0.5% formic acid. After heat sealing, plates were stored at −20° C. for at least 30 min, centrifuged and subjected directly to RapidFire®/MS analysis.

PAR-1 receptor, sequence (P25116 22-425): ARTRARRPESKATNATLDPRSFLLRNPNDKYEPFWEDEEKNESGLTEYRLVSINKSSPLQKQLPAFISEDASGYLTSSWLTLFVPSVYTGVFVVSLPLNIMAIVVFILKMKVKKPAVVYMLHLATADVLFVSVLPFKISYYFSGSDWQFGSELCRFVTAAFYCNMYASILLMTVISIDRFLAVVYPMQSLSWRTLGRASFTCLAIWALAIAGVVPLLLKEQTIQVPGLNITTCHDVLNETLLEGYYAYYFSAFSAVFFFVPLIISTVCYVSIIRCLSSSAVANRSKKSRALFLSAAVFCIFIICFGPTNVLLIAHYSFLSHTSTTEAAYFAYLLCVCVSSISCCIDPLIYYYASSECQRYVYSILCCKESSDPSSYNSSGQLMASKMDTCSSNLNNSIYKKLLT
CYP3A4, sequence (P08684 whole entry): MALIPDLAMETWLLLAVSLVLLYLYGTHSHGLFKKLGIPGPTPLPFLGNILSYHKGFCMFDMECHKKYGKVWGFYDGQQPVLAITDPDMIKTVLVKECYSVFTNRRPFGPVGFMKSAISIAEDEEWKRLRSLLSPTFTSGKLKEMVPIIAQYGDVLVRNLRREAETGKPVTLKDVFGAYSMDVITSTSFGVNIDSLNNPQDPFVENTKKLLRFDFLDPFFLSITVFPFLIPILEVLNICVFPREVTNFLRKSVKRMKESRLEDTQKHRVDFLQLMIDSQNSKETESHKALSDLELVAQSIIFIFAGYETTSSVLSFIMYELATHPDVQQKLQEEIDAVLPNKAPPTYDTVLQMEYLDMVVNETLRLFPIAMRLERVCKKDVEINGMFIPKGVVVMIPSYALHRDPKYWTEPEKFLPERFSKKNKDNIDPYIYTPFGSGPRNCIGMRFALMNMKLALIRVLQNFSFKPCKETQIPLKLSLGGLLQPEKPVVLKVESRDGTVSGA

SMILES	IC50 (PAR-1 receptor)	IC50 (CYP3A4)
Cc1cccc(-c2ccc(/C=C/[C@@H]3[C@@H]4[C@@H](C)OC(=O)[C@]4(c4nnc(-c5ccccc5)o4)CC(F)(F)[C@H]3C)nc2)c1C#N [Example 7]	5.01 nM	
C[C@H]1OC(=O)[C@]2(c3n[nH]c(=O)o3)CC(F)(F)[C@@H](C)[C@H](/C=C/c3ccc(-c4cccc(F)c4)cn3)[C@H]12 [Example 8, 5-((1R,3aR,6S,7R,7aS)-5,5-difluoro-7-((E)-2-(5-(3-fluorophenyl)pyridin-2-yl)vinyl)-1,6-dimethyl-3-oxooctahydroisobenzofuran-3a-yl)-1,3,4-oxadiazol-2(3H)-one]	28.7 nM	
C[C@H]1OC(=O)[C@]2(c3cc(C(C)(C)C)n(C)n3)CC(F)(F)[C@@H](C)[C@H](/C=C/c3ccc(-c4ccccc4C#N)cn3)[C@H]12 [Example 10, 2-(6-((E)-2-((3R,3aS,4R,5S,7aR)-7a-(5-(tert-butyl)-1-methyl-1H-pyrazol-3-yl)-6,6-difluoro-3,5-dimethyl-1-oxooctahydroisobenzofuran-4-yl)vinyl)pyridin-3-yl)benzonitrile]	25.3 nM	≥ 50000 nM
Cc1nnc([C@@]23CC(F)(F)[C@@H](C)[C@H](/C=C/c4ccc(-c5cccc(C)c5C#N)cn4)[C@@H]2[C@@H](C)OC3=O)o1 [Example 5, 2-(6-((E)-2-((3R,3aS,4R,5S,7aR)-6,6-difluoro-3,5-dimethyl-7a-(5-methyl-1,3,4-oxadiazol-2-yl)-1-oxooctahydroisobenzofuran-4-yl)vinyl)pyridin-3-yl)-6-methylbenzonitrile]	2.45 nM	16900 nM
Cc1cccc(-c2ccc(/C=C/[C@@H]3[C@@H]4[C@@H](C)OC(=O)[C@]4(c4nnc(C5CC5)o4)CC(F)(F)[C@H]3C)nc2)c1C#N [Example 6, 2-(6-((E)-2-((3R,3aS,4R,5S,7aR)-7a-(5-cyclopropyl-1,3,4-oxadiazol-2-yl)-6,6-difluoro-3,5-dimethyl-1-oxooctahydroisobenzofuran-4-yl)vinyl)pyridin-3-yl)-6-methylbenzonitrile]	2.07 nM	
Cc1cccc(-c2ccc(/C=C/[C@@H]3[C@@H]4[C@@H](C)OC(=O)[C@]4(c4cc(C)n(C)n4)CC(F)(F)[C@H]3C)nc2)c1C#N [Example 11]	6.3 nM	17600 nM
C[C@H]1OC(=O)[C@]2(c3cc[nH]n3)CC(F)(F)[C@@H](C)[C@H](/C=C/c3ccc(-c4ccccc4C#N)cn3)[C@H]12 [Example 12, 2-(6-((E)-2-((3R,3aS,4R,5S,7aR)-6,6-difluoro-3,5-dimethyl-1-oxo-7a-(1H-pyrazol-3-yl)octa hydroisobenzofuran-4-yl)vinyl)pyridin-3-yl)benzonitrile]	0.99 nM	2400 nM
C[C@H]1OC(=O)[C@]2(c3n[nH]c(=O)o3)CC(F)(F)[C@@H](C)[C@H](/C=C/c3ccc(-c4ccccc4C#N)cn3)[C@H]12 [Example 1, 2-(6-((E)-2-((3R,3aS,4R,5S,7aR)-6,6-difluoro-3,5-dimethyl-1-oxo-7a-(5-oxo-4,5-dihydro-1,3,4-oxadiazol-2-yl)octahydroisobenzofuran-4-yl)vinyl)pyridin-3-yl)benzonitrile]	4.22 nM	21800 nM
C[C@H]1OC(=O)[C@]2(c3cc(C(C)(C)C)[nH]n3)CC(F)(F)[C@@H](C)[C@H](/C=C/c3ccc(-c4ccccc4C#N)cn3)[C@H]12 [Example 9, 2-(6-((E)-2-((3R,3aS,4R,5S,7aR)-7a-(5-(tert-butyl)-1H-pyrazol-3-yl)-6,6-difluoro-3,5-dimethyl-1-oxooctahydroisobenzofuran-4-yl)vinyl)pyridin-3-yl)benzonitrile]	14.5 nM	
C[C@H]1OC(=O)[C@]2(c3cc[nH]n3)CC(F)(F)[C@@H](C)[C@H](/C=C/c3ccc(-c4cccnc4C#N)cn3)[C@H]12 [Example 13, 6′-((E)-2-((3R,3aS,4R,5S,7aR)-6,6-difluoro-3,5-dimethyl-1-oxo-7a-(1H-pyrazol-3-yl)octahydroisobenzofuran-4-yl)vinyl)-[3,3′-bipyridine]-2-carbonitrile]	6.2 nM	8800 nM
C[C@H]1OC(=O)[C@]2(c3nnc(N)o3)CC(F)(F)[C@@H](C)[C@H](/C=C/c3ccc(-c4ccccc4C#N)cn3)[C@H]12 [Example 4, 2-(6-((E)-2-((3R,3aS,4R,5S,7aR)-7a-(5-amino-1,3,4-oxadiazol-2-yl)-6,6-difluoro-3,5-dimethyl-1-oxooctahydroisobenzofuran-4-yl)vinyl)pyridin-3-yl)benzonitrile]	3.08 nM	9900 nM
Cc1cccc(-c2ccc(/C=C/[C@@H]3[C@@H]4[C@@H](C)OC(=O)[C@]4(c4n[nH]c(=O)o4)CC(F)(F)[C@H]3C)nc2)c1C#N [Example 2, 2-(6-((E)-2-((3R,3aS,4R,5S,7aR)-6,6-difluoro-3,5-dimethyl-1-oxo-7a-(5-oxo-4,5-dihydro-1,3,4-oxadiazol-2-yl)octahydroisobenzofuran-4-yl)vinyl)pyridin-3-yl)-6-methylbenzonitrile]	1.34 nM	22800 nM
Cc1cccc(-c2ccc(/C=C/[C@@H]3[C@@H]4[C@@H](C)OC(=O)[C@]4(c4nnc(N)o4)CC(F)(F)[C@H]3C)nc2)c1C#N [Example 3, 2-(6-((E)-2-((3R,3aS,4R,5S,7aR)-7a-(5-amino-1,3,4-oxadiazol-2-yl)-6,6-difluoro-3,5-dimethyl-1-oxooctahydroisobenzofuran-4-yl)vinyl)pyridin-3-yl)-6-methylbenzonitrile]	1.22 nM	10400 nM
